Results reported in patent publication US20050080090A1, “Naphthalene derivatives” (priority 1993, published 2005).

| melting point | SMILES |
| --- | --- |
| 140 to 141 °C | CN1CCN(c2cccc3ccc(NCc4cccc5ccccc45)cc23)CC1 [Example 13, 7-(1-Naphthylmethylamino)-1-(4-methyl-1-piperazinyl)-naphthalene] |
| 81.5 to 82.5 °C | CN1CCN(c2cccc3ccc(OCc4ccccc4)cc23)CC1 [Example 49, 7-(Benzyloxy)-1-(4-methyl-1-piperazinyl)-naphthalene] |
| 177 to 180 °C | CC(=O)Nc1ccc2cccc(N3CCN(C)CC3)c2c1 |
